Reference: PubChem BioAssay (NCI)
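Cells were grown in 96-well plates and exposed to each compound for 48 hours at five concentrations; endpoints were interpolated linearly between bracketing concentrations, or set to the highest concentration if not reached. Definition used: TGI = concentration required for complete inhibition of growth.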

What was measured:
Assay in all cases: NCI tumour cell line growth inhibition, 48 h
HT29 colon = system: HT29 colon
HL-60(TB) leukemia = system: HL-60(TB) leukemia
HOP-62 NSCLC = system: HOP-62 NSCLC
SF-268 CNS = system: SF-268 CNS
SK-MEL-28 melanoma = system: SK-MEL-28 melanoma
SK-MEL-5 melanoma = system: SK-MEL-5 melanoma
MOLT-4 leukemia = system: MOLT-4 leukemia
A498 renal = system: A498 renal
NCI-H522 lung = system: NCI-H522 lung
A549 NSCLC = system: A549 NSCLC
786-0 renal = system: 786-0 renal
MDA-MB-435 = system: MDA-MB-435
MDA-MB-231 breast = system: MDA-MB-231 breast

Row | SMILES | TGI (HT29 colon) | TGI (HL-60(TB) leukemia) | TGI (HOP-62 NSCLC) | TGI (SF-268 CNS) | TGI (SK-MEL-28 melanoma) | TGI (SK-MEL-5 melanoma) | TGI (MOLT-4 leukemia) | TGI (A498 renal) | TGI (NCI-H522 lung) | TGI (A549 NSCLC) | TGI (786-0 renal) | TGI (MDA-MB-435) | TGI (MDA-MB-231 breast)
1 | C=CCON(C(=O)OC(C)(C)C)C(C)(C)C | > 100 µM | > 100 µM | > 100 µM | > 100 µM | > 100 µM | > 100 µM | > 100 µM | > 100 µM | > 100 µM | > 100 µM | > 100 µM | > 100 µM | > 100 µM
2 | COC(=O)c1cc(S(=O)(=O)NC2=NCC(C)NN2)c(S)cc1Cl (stereo not given) | > 100 µM | > 100 µM | > 100 µM | 60.6 µM | > 100 µM | 82.3 µM | > 100 µM | 72.8 µM | 47.5 µM | > 100 µM | > 100 µM | > 100 µM | > 100 µM
3 | Cc1ccc(N=N/C(=N/NC(=O)c2ccccc2)c2ccc(N(CCC#N)CCC#N)cc2C)cc1 | 53.7 µM | > 100 µM | > 100 µM | > 100 µM | – | > 100 µM | > 100 µM | 88.1 µM | 42.2 µM | > 100 µM | > 100 µM | > 100 µM | > 100 µM
4 | N#Cc1c(NC(=O)C(F)(F)F)sc2c3c(=O)c4ccccc4c(=O)c=3oc3ccccc3c12 | 41.6 µM | 24.6 µM | > 61.9 µM | 61.4 µM | 51.5 µM | 26.6 µM | 34.3 µM | > 72.3 µM | 32.6 µM | > 77.6 µM | 72.2 µM | 41.4 µM | 67 µM
5 | O=S(=O)(/N=C(\NO)Nc1ccc(Cl)cc1)c1cc(C(F)(F)F)cc(C(F)(F)F)c1 | 34.3 µM | 79 µM | 36.9 µM | 50.7 µM | 39 µM | 32.8 µM | 70.2 µM | – | 40.4 µM | 34.5 µM | 33.4 µM | 37.6 µM | 37.2 µM
6 | Cc1ccc(OCC2OC(n3cnc4c(Cl)nc(Nc5cc(Cl)cc(Cl)c5)nc43)CC2Oc2ccc(C)cc2)cc1 (stereo not given) | > 100 µM | > 100 µM | – | > 100 µM | > 100 µM | > 100 µM | > 100 µM | > 100 µM | > 100 µM | > 100 µM | > 100 µM | > 100 µM | > 100 µM
7 | CC(C)(C)OC(=O)N(CCCCNC(=O)C(F)(F)F)CCCNC(=O)C(F)(F)F | > 100 µM | > 100 µM | > 100 µM | > 100 µM | > 100 µM | > 100 µM | > 100 µM | > 100 µM | > 100 µM | > 100 µM | > 100 µM | > 100 µM | > 100 µM
8 | Cc1[nH]n(-c2nc3c(c(=O)[nH]2)CCCC3)c(=O)c1CCO | > 100 µM | > 100 µM | > 100 µM | > 100 µM | > 100 µM | > 100 µM | > 100 µM | > 100 µM | > 100 µM | > 100 µM | > 100 µM | > 100 µM | > 100 µM
9 | CCOC(=O)c1c(NC(=O)c2ccccc2)c(C#N)c2n1CCCCC2 | > 100 µM | > 100 µM | > 100 µM | > 100 µM | > 100 µM | > 100 µM | > 100 µM | – | > 100 µM | > 100 µM | > 100 µM | > 100 µM | > 100 µM
10 | O=C1CC(O)c2cscc21 (stereo not given) | > 100 µM | > 100 µM | > 100 µM | > 100 µM | > 100 µM | > 100 µM | > 100 µM | > 100 µM | > 100 µM | – | > 100 µM | > 100 µM | > 100 µM
11 | Cc1ccc(S[C@@](C=O)(NC(=O)OCc2ccccc2)C(F)(F)F)cc1 | 37.9 µM | 41.8 µM | 88.3 µM | > 100 µM | 67.1 µM | 41.4 µM | 52 µM | > 100 µM | – | 88.3 µM | 47.5 µM | 86.3 µM | 58.7 µM
12 | COc1ccccc1C1c2cc3c(cc2OC2(OC)COC(=O)C12)OCO3 (stereo not given) | 22.9 µM | 18.5 µM | > 91.2 µM | 83.9 µM | 44.2 µM | 59.3 µM | > 46.2 µM | 54.4 µM | > 27.3 µM | > 100 µM | 72.1 µM | 5.74 µM | > 100 µM
13 | Oc1c(N2CCCCC2)cc(-c2cc(N3CCCCC3)c(O)c3ccccc23)c2ccccc12 | 55.5 µM | > 100 µM | > 100 µM | > 100 µM | 40.9 µM | 34.6 µM | 79.8 µM | – | – | > 100 µM | 45 µM | 23.2 µM | > 100 µM
14 | COC1(OC)c2occc2C(=N)c2ccc(=O)oc21 | > 100 µM | > 100 µM | > 100 µM | > 100 µM | > 100 µM | 49.2 µM | > 100 µM | > 100 µM | > 100 µM | > 100 µM | > 100 µM | > 100 µM | > 100 µM
15 | C=CCC(CCC(C)=O)(C(=O)OCC)C(=O)OCC | > 100 µM | > 100 µM | > 100 µM | > 100 µM | > 100 µM | > 100 µM | > 100 µM | > 100 µM | > 100 µM | > 100 µM | > 100 µM | > 100 µM | > 100 µM
16 | O=C(c1ccc(Cl)cc1)N(C(=O)N1CCCCC1)c1ccccc1 | > 100 µM | > 100 µM | – | > 100 µM | > 100 µM | > 100 µM | 72 µM | > 100 µM | – | – | > 100 µM | > 100 µM | > 100 µM
17 | NNc1nnc(CCCCCCCCc2nnc(NN)n2N)n1N | > 100 µM | > 100 µM | > 100 µM | > 100 µM | > 100 µM | > 100 µM | > 100 µM | > 100 µM | > 100 µM | > 100 µM | > 100 µM | > 100 µM | > 100 µM
